Experimental data published in ChEMBL document CHEMBL2176908, “Structure-aided design of novel inhibitors of HIV protease based on a benzodiazepine scaffold” (J Med Chem, 2012).
Calls of active or inactive are those of the source. The calls are words filed in the database; no cut-off is given here.

Experiments:
[1] = target: T1, Protease (Human immunodeficiency virus 1, UniProt Q9YQ12); assay: Inhibition of HIV1 protease by spectrophotometric assay
[2] = target: T1, Protease; assay: Inhibition of HIV1 protease by double-reciprocal Lineweaver-Burk plot; conditions: read-out: Ki(app)
[3] = target: Cathepsin D (Homo sapiens) (UniProt P07339); assay: Inhibition of human cathepsin D spectrofluorometry
[4] = target: T2, Papain (Carica papaya) (UniProt P00784); assay: Inhibition of papaya papain by spectrofluorometry
T2 sequence (whole entry): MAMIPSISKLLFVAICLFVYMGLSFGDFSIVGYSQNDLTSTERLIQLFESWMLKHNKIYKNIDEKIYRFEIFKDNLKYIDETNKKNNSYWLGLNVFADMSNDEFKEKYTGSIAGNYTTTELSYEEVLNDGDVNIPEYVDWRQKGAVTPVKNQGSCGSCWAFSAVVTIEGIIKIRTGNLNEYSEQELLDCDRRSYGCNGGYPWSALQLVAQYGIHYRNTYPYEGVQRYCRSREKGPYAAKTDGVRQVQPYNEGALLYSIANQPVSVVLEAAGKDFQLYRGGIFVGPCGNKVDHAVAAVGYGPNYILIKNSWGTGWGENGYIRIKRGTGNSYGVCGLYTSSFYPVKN

T1 sequence (Q9YQ12 whole entry): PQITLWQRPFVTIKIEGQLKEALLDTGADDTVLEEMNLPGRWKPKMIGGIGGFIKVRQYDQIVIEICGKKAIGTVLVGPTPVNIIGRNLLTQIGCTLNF
Chain of Cathepsin D (Homo sapiens) (P07339 65-162 limits assumed): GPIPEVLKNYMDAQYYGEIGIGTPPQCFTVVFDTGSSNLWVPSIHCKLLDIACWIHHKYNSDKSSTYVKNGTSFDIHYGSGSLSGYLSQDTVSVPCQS
Chain of Cathepsin D (Homo sapiens) (P07339 169-412 limits assumed): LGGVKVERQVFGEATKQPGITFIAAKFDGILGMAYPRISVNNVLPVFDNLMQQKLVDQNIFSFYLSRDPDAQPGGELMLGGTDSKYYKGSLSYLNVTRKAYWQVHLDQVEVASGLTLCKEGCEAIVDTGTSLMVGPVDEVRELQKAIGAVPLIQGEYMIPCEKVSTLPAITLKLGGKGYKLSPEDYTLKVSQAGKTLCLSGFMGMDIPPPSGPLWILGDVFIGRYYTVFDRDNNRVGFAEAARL

Row | Compound | IC50 [1] [nM] | Ki [2] [nM] | inhibition [3] | inhibition [4]
1 | CC1(C)CC(=O)C2=C(C1)Nc1ccccc1N(C(=O)C(=O)N1CC3=C(CC(C)(C)CC3=O)Nc3ccccc31)C2 | 200 | ≤ 12 |  | 
2 | CC1(C)CC(=O)C2=C(C1)Nc1ccccc1N(C(=O)C(=O)N1c3ccccc3NC3=C(C(=O)CC(C)(C)C3)[C@H]1c1ccccc1)[C@H]2c1ccccc1 | > 1000 | ≤ 12 |  | 
3 | O=C1CC(c2ccccc2)CC2=C1C(c1ccccc1)Nc1ccccc1N2 (mixture of isomers) | 20000 | ≤ 12 |  | 
4 | COc1cc([C@@H]2Nc3ccccc3NC3=C2C(=O)C[C@@H](c2ccccc2)C3)cc(Cl)c1O (mixture of isomers) | 4300 | ≤ 12 |  | 
5 | CC1(C)CC(=O)C2=C(C1)Nc1ccccc1N(C(=O)C(F)(F)C(=O)N1c3ccccc3NC3=C(C(=O)CC(C)(C)C3)C1c1ccccc1)C2c1ccccc1 (mixture of isomers) | 300 | ≤ 12 |  | 
6 | CC1(C)CC(=O)C2=C(C1)Nc1ccccc1N(C(=O)C(=O)N1c3ccccc3NC3=C(C(=O)CC(C)(C)C3)C1c1ccccc1)C2c1ccccc1 (mixture of isomers; 5a) [listing 2 of 2 here] |  |  | inactive | inactive
7 | CC1(C)CC(=O)C2=C(C1)Nc1ccccc1NC2c1ccccc1 (racemic) | 110000 | ≤ 12 |  | 

The remaining compounds from weak to strong by IC50 [1], led by results:

Row | IC50 [1] [nM] | Ki [2] [nM] | inhibition [3] | inhibition [4] | Compound
8 | 100 | ≤ 12 |  |  | CC1(C)CC(=O)C2=C(C1)Nc1ccccc1N(C(=O)C(=O)N1c3ccccc3NC3=C(C(=O)CC(C)(C)C3)C1c1ccccc1)C2 (racemic)
9 | 60 | ≤ 12 |  |  | O=C1CC(c2ccccc2)CC2=C1C(c1ccccc1)N(C(=O)C(=O)N1c3ccccc3NC3=C(C(=O)CC(c4ccccc4)C3)C1c1ccccc1)c1ccccc1N2 (mixture of isomers)
10 | 30 | ≤ 12 |  |  | CC1(C)CC(=O)C2=C(C1)Nc1ccccc1N(C(=O)C(=O)N1c3ccccc3NC3=C(C(=O)CC(C)(C)C3)C1c1ccccc1)C2c1ccccc1 (mixture of isomers; 5)
11 | 30 |  |  |  | CC1(C)CC(=O)C2=C(C1)Nc1ccccc1N(C(=O)C(=O)N1c3ccccc3NC3=C(C(=O)CC(C)(C)C3)C1c1ccccc1)C2c1ccccc1 (mixture of isomers; 5a) [listing 1 of 2 here]
